Format in all cases: cell-based
One assay has as its system JNK, p38 MAPK, and NF-κB. The experiment in a line: Subcellular signaling in TNF-α-stimulated skeletal muscle cells (western blot). The following applies: C2C12; ucOCN 0.5 ng/ml pretreatment 1, 10, 30 minutes; TNF-α 10 ng/ml; FIG. 4. As for the experimental part:
In order to observe the effect of undercarboxylated osteocalcin on the subcellular signaling process on the inflammatory response induced by TNF-α in skeletal muscle cells, the following experiment was performed.
(§1) Undercarboxylated osteocalcin (ucOCN) was treated at a concentration of 0.5 ng/ml in the medium (DMEM medium containing 10% heat-inactivated fetal bovine serum (FBS), 100 U/mL of penicillin and […] of streptomycin, hereinafter the same), and skeletal muscle cell lines (C2C12) were prepared in three groups, and cultured and pre-treated at 5% CO2, 37° C. for 1 minute, 10 minutes, and 30 minutes, respectively.
(§2) In order to induce an inflammatory response, each medium was treated with TNF-α 10 ng/ml, and cultured for 8 hours under the same conditions.
For the cultured cells of each group, the protein amount and phosphorylation level of JNK, p38 MAPK, and NF-κB in each group were measured through western blot.

The next assay relates to NF-κB promoter. The experiment in a line: TNF-α-induced NF-κB promoter (luciferase) activity. The following applies: stated in the description, no method given.
The test system of another assay is NF-κB. The experiment in a line: Inhibition of TNF-α-induced NF-κB activity in skeletal muscle cells (western blot, immunofluorescence). As for the experimental part:
In order to observe the effect of undercarboxylated osteocalcin on the activity of NF-κB induced by TNF-α in skeletal muscle cells, the following experiment was performed.
as §1, §2
For the cultured cells of each group, the phosphorylation level and the protein amounts in the nucleus of IκBα, IKK (hereinafter, intracytoplasmic) and P65 NF-κB in each group were measured through western blot, and immunofluorescence analysis for each group was performed.
On the technique in general: A western blot detects proteins with antibodies after separation by electrophoresis.

Assay [1] deals with skeletal muscle cell line (C2C12). The experiment in a line: TNF-α-induced inflammatory cytokine production in skeletal muscle cells (ELISA, Real-Time PCR, western blot). As to the method:
(§3) First, skeletal muscle cell lines (C2C12) were obtained. Undercarboxylated osteocalcin (ucOCN, purchased from Bachem, Switzerland) was treated in a medium (DMEM medium containing 10% heat-inactivated fetal bovine serum (FBS), 100 U/mL of penicillin and […] of streptomycin, hereinafter the same) at four different concentrations of 0 ng/ml, 0.5 ng/ml, 5 ng/ml and 50 ng/ml, and skeletal muscle cell lines (C2C12) were prepared in three groups and cultured and pre-treated at 5% CO2, 37° C. for 8 hours, 24 hours, and 48 hours, respectively.
(§4) In order to induce an inflammatory response, each medium was treated with 10 ng/ml of TNF-α (purchased from Peprotech, USA), and cultured for 8 hours under the same conditions.
In order to observe the change in the expression level of TNF-α-induced inflammatory cytokines (TNF-α, IL-1β and IL-6) in skeletal muscle cells due to undercarboxylated osteocalcin, the following experiment was performed.
In the cells obtained from Example 1.1 above, the concentrations of TNF-α, IL-1β and IL-6 were measured through ELISA, and the expression levels of RNA and protein of IL-1β and IL-6 were identified through Real-Time PCR and western blot.
Background: ELISA stands for enzyme-linked immunosorbent assay.

Assay [2] has the same test system. The experiment in a line: Level of reactive oxygen species in TNF-α-stimulated skeletal muscle cells (DAPI and CellRox staining). The following applies: ucOCN 0.5 and 5 ng/ml vs untreated group, TNF-α 10 ng/ml, FIG. 3. As to the method: as §3, §4
In order to identify the level of reactive oxygen species (ROS) in the undercarboxylated osteocalcin-treated cells by being induced inflammatory response with TNF-α in skeletal muscle cells, the following experiment was performed.
The cells obtained in Example 1.1 above were stained with DAPI and CellRox, and observed under a microscope.

For assay [3], the system named is macrophage cell lines (RAW 264.7). The experiment in a line: TNF-α-induced inflammatory cytokines and inflammatory mediating enzyme proteins in immune cells (ELISA, western blot). The following applies: ucOCN 0.5, 5, 50 ng/ml pretreatment 8, 24, 48 hours, then TNF-α 10 ng/ml 8 hours, FIGS. 7 and 8. As for the experimental part: First, macrophage cell lines (RAW 264.7) were obtained as immune cells. Undercarboxylated osteocalcin (ucOCN) was treated in a medium at four different concentrations of 0 ng/ml, 0.5 ng/ml, 5 ng/ml and 50 ng/ml, and macrophage cell lines were prepared in three groups and cultured and pre-treated at 5% CO2, 37° C. for 8 hours, 24 hours, and 48 hours, respectively.
In order to induce an inflammatory response, each medium was treated with 10 ng/ml of TNF-α, and cultured for 8 hours under the same conditions to obtain a supernatant.
In order to observe changes in the expression level of TNF-α-induced inflammatory cytokines (TNF-α and IL-6) and inflammatory mediating enzyme proteins (iNOS and COX-2) in immune cells by undercarboxylated osteocalcin, the following experiments were performed.
In each supernatant obtained from Example 2.1 above, the concentrations of TNF-α, IL-1β and IL-6 were measured through ELISA, and the expression level of […] was identified through western blot.

Where no end group is shown, it is not given here.

Turning to “undercarboxylated osteocalcin (YLYQWLGAPVPYPDPLEPRREVCELNPDCDELADHIGFQEAYRRFYGPV; not fully specified; ends and bridges not checked; UniProt P02818 52-100, looked up) [osteocalcin in which at least one of the three gamma-carboxylglutamate residues is not γ-carboxylated; purchased from Bachem, Switzerland]”, in the assay on JNK, p38 MAPK, and NF-κB, the “protein amount of NF-κB” value is “significantly inhibited”; the “protein amounts and phosphorylation levels of JNK and p38 MAPK” value is given as “significantly inhibited”. The “TNF-α-induced NF-κB luciferase activity” value with NF-κB promoter is given as “significantly inhibits”. Further, in the assay with NF-κB (C2C12, immunofluorescence analysis, FIG. 6), the “cytoplasmic-to-nuclear translocation of NF-κB induced by TNF-α” value is “inhibited cytoplasmic-to-nuclear translocation of NF-κB”. Also, in the assay with NF-κB (C2C12 cytoplasm, ucOCN 0.5 ng/ml, TNF-α 10 ng/ml, FIG. 5), the “PHOPHO-IκBα and total IκBα (TNF-α alone: phospho increased, total decreased)” value was “showed the opposite result”. Further, the IL-1β production result in assay [1] (TNF-α 10 ng/ml, FIG. 1) is recorded as “inhibitory effect of IL-1β production among inflammatory cytokines was remarkably shown”. In addition, in assay [1] (all treatment concentrations of ucOCN (0.5, 5, 50 ng/ml), FIG. 2), the “IL-1β production (protein amount)” value was “remarkable production inhibitory effect”. For the same substance, the “inhibition of inflammatory cytokine production by treatment time” value in assay [1] (group treated with ucOCN for 8 hours and 48 hours, FIG. 1) is “remarkably excellent inhibitory effect”. The “TNF-α (protein amount)” value in assay [1] (group treated with ucOCN for 8 hours, FIG. 2) was “excellent inhibitory effect”. The “IL-6 (protein amount)” value in assay [1] (ucOCN 0.5 ng/ml and 5 ng/ml within 24 hours, FIG. 2) is on record as “remarkable inhibitory effect”. Further, the “production of inflammatory cytokines TNF-α, IL-1β and IL-6” value in assay [1] (ucOCN 0.5, 5, 50 ng/ml pretreatment 8, 24, 48 hours, then TNF-α 10 ng/ml 8 hours, FIG. 1) is reported as “inhibited the production of inflammatory cytokines”. Moreover, the “level of reactive oxygen species” value in assay [2] was “significantly inhibited”. The “production of inflammatory cytokines TNF-α, IL-1β, IL-6 and inflammatory mediating enzyme proteins iNOS and COX-2” value in assay [3] was “inhibited the production of inflammatory cytokines and inflammatory mediating enzyme proteins”.

The record behind these values is patent publication US20220184183A1, “PHARMACEUTICAL COMPOSITION, FOR PREVENTING OR TREATING INFLAMMATORY DISEASES, COMPRISING OSTEOCALCIN” (GENEROATH CO., LTD., priority 2019, published 2022).
